{
  "source": "patent US10912471B2",
  "about": "“System and method for automatic perfusion measurement” (priority 2018, dated 2021)",
  "origin": "cited, not measured here",
  "key": {"[1]": {"tested_on": "plasma proteins", "settings": "becomes confined to the vascular system"}, "[2]": {"settings": "administration not without risks, e.g. during pregnancy"}},
  "data": [
    {"smiles": "CC1(C)C(/C=C/C=C/C=C/C=C2\\N(CCCCS(=O)(=O)O)c3ccc4ccccc4c3C2(C)C)=[N+](CCCCS(=O)(=O)[O-])c2ccc3ccccc3c21", "note": "[ICG, Indocyanine green]", "values": [
      {"measurement": "binding to plasma proteins", "setting": "[1]", "value": "binds tightly to plasma proteins"},
      {"measurement": "toxicity classification", "setting": "[2]", "value": "low"}
    ]}
  ]
}
